Measurements reported in patent publication US20220324880A1, “SMARCA INHIBITORS AND USES THEREOF” (Kymara Therapeutics, Inc., priority 2019, published 2022).

Target: T1, SMARCA2 (Homo sapiens, UniProt P51531)
Experiment: SMARCA2 BromoScan bromodomain binding assay (phage-displayed bromodomain, qPCR readout)
Design: made in house; host or cells: E. coli host derived from the BL21 strain (T7 phage lysate)
Conditions: read-out: BromoScan Panel - SMARCA2: External Kd
Experimental: Bromodomain assays. T7 phage strains displaying bromodomains were grown in parallel in 24-well blocks in an E. coli host derived from the BL21 strain. E. coli were grown to log-phase and infected with T7 phage from a frozen stock (multiplicity of infection=0.4) and incubated with shaking at 32° C. until lysis (90-150 minutes). The lysates were centrifuged (5,000×g) and filtered (0.2 μm) to remove cell debris. Streptavidin-coated magnetic beads were treated with biotinylated small molecule or acetylated peptide ligands for 30 minutes at room temperature to generate affinity resins for bromodomain assays. […] Test compounds were prepared as 1000λ stocks in 100% DMSO. Kds were determined using an 11-point 3-fold compound dilution series with one DMSO control point. […] The compounds were then diluted directly into the assays such that the final concentration of DMSO was 0.09%. All reactions performed in polypropylene 384-well plates. Each was a final volume of 0.02 ml. […] The bromodomain concentration in the eluates was measured by qPCR. Compound Handling: An 11-point 3-fold serial dilution of each test compound was prepared in 100% DMSO at 1000× final test concentration. […] The compounds were then diluted directly into the assays such that the final concentration of DMSO was 0.09%. […] Binding constants (Kds) were calculated with a standard dose-response curve using the Hill equation. Curves were fitted using a non-linear least square fit with the Levenberg-Marquardt algorithm.
Target sequence in this assay (P51531 1378-1506 limits assumed): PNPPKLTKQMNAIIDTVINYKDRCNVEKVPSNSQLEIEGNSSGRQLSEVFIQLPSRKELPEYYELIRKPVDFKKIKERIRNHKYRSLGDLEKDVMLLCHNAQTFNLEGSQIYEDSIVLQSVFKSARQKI

Row | SMILES | Kd [µM]
1 | CC(c1ccccc1)n1cc(-c2cc(-c3cccn(C)c3=O)cnc2N)cn1 (centres unmarked) [I-1, 6′-Amino-1-methyl-5′-(1-(1-phenylethyl)-1H-pyrazol-4-yl)-[3,3′-bipyridin]-2(1H)-one] | > 1
2 | Cn1cccc(-c2cnc(N)c(-c3cn[nH]c3)c2)c1=O [I-2, 3-[6-Amino-5-(1H-pyrazol-4-yl)-3-pyridyl]-1-methyl-pyridin-2-one] | > 1
3 | O=c1c2c(O)cccc2ccn1Cc1cnn(Cc2ccccc2)c1 [I-3, 2-((1-benzyl-1H-pyrazol-4-yl)methyl)-8-hydroxyisoquinolin-1(2H)-one] | > 1
4 | O=c1c2c(O)cccc2ccn1Cc1cn[nH]c1 [I-4, 2-((1H-pyrazol-4-yl)methyl)-8-hydroxyisoquinolin-1(2H)-one] | > 1
5 | O=c1c2c(O)cccc2ccn1CC1CCN(c2ccccn2)C1 (centres unmarked) [I-5, 8-hydroxy-2-((1-(pyridin-2-yl)pyrrolidin-3-yl)methyl)isoquinolin-1(2H)-one] | > 1
6 | CC(C)(C)OC(=O)N1CCCC1Cn1ccc2cccc(O)c2c1=O (centres unmarked) [I-6, Tert-butyl-2-((8-hydroxy-1-oxoisoquinolin-2(1H)-yl)methyl)pyrrolidine-1-carboxylate] | > 1
7 | O=c1c2c(O)cccc2ccn1CC1CCCN1 (centres unmarked) [I-7, 8-hydroxy-2-(pyrrolidin-2-ylmethyl)isoquinolin-1(2H)-one] | > 1
8 | CC(C)(C)OC(=O)N1CCC(Cn2ccc3cccc(O)c3c2=O)C1 (centres unmarked) [I-9, Tert-butyl 3-((8-hydroxy-1-oxoisoquinolin-2(1H)-yl)methyl)pyrrolidine-1-carboxylate] | > 1
9 | O=c1c2c(O)cccc2ccn1CC1CCNC1 (centres unmarked) [I-10, 8-hydroxy-2-(pyrrolidin-3-ylmethyl)isoquinolin-1(2H)-one] | > 1
10 | O=c1ncn(-c2ccccc2)c2cccc(Cl)c12 [I-11, 5-Chloro-1-phenylquinazolin-4(1H)-one] | > 1
11 | Nc1ncc(-c2ncccn2)cc1C1CCNCC1 [I-13] | > 1
12 | Nc1ncc(-c2ncccn2)cc1N1CCNCC1 [I-14, 3-(piperazin-1-yl)-5-(pyrimidin-2-yl)pyridin-2-amine] | > 1
13 | Nc1ncc(-c2cccc(Cl)c2)cc1N1CCNCC1 [I-15, 5-(3-chlorophenyl)-3-(piperazin-1-yl)pyridin-2-amine] | > 1
14 | O=C(NCC1CCN(c2ccccn2)CC1)c1ccccc1O [I-16, 2-Hydroxy-N-((1-(pyridin-2-yl)piperidin-4-yl)methyl)benzamide] | > 1
15 | Nc1nnc(-c2cnccc2O)cc1N1CCNCC1 [I-17, 3-(6-Amino-5-(piperazin-1-yl)pyridazin-3-yl)pyridin-4-ol] | > 1
16 | CCCCOc1ccc(N2CCN(c3cc(-c4ccccc4O)nnc3N)CC2)cc1 [I-18, 2-(6-Amino-5-(4-(4-butoxyphenyl)piperazin-1-yl)pyridazin-3-yl)phenol] | > 1
17 | Oc1ccccc1-c1cc2cc[nH]c2nn1 [I-19, 2-(7H-Pyrrolo[2,3-c]pyridazin-3-yl)phenol] | < 0.1

Row | SMILES | Kd [µM]
18 | Oc1ccccc1-c1cc2c(C3CCNCC3)c[nH]c2nn1 [I-20, 2-(5-(Piperidin-4-yl)-7H-pyrrolo[2,3-c]pyridazin-3-yl)phenol] | < 0.1
19 | O=C(Nc1ccc2cn[nH]c2c1)c1ccccc1O [I-21, 2-Hydroxy-N-(1H-indazol-6-yl)benzamide] | > 1
20 | O=C(Nc1cc(C2CCNCC2)cc2[nH]ncc12)c1ccccc1O [I-22, 2-Hydroxy-N-(6-(piperidin-4-yl)-1H-indazol-4-yl)benzamide] | > 1
21 | O=C(Nc1ccc2c(C3CCNCC3)n[nH]c2c1)c1ccccc1O [I-23, 2-Hydroxy-N-[3-(4-piperidyl)-1H-indazol-6-yl]benzamide] | > 1
22 | c1ccc2c(c1)nnc1[nH]c(C3CCNCC3)cc12 [I-24, 2-(4-Piperidyl)-3H-pyrrolo [2,3-c]cinnoline] | 0.501 to 1
23 | Nc1ncc2c(Cl)cccc2c1C#CC1CCNCC1 [I-27, 8-Chloro-4-(piperidin-4-ylethynyl)isoquinolin-3-amine] | > 1
24 | Oc1ccccc1-c1cc(-c2ccc(CN3CCNCC3)cc2)[nH]n1 [I-28, 2-[5-[4-(piperazin-1-ylmethyl)phenyl]-1H-pyrazol-3-yl]phenol] | > 1
25 | Oc1ccccc1-c1n[nH]c2ccccc12 [I-29, 2-(1H-indazol-3-yl)phenol] | > 1
26 | Oc1ccccc1-c1n[nH]c2ccncc12 [I-30, 2-(1H-Pyrazolo[4,3-c]pyridin-3-yl)phenol] | > 1
27 | Nc1nnc(-c2ccc(Cl)cc2O)cc1N1CCNCC1 [I-31, 2-(6-Amino-5-piperazin-1-yl-pyridazin-3-yl)-5-chloro-phenol] | > 1
28 | Nc1nnc(-c2cccc(Cl)c2O)cc1N1CCNCC1 [I-32, 2-(6-Amino-5-(piperazin-1-yl)pyridazin-3-yl)-6-chlorophenol] | < 0.1
29 | Nc1nnc(-c2cc(Cl)ccc2O)cc1N1CCNCC1 [I-33, 2-(6-Amino-5-piperazin-1-yl-pyridazin-3-yl)-4-chloro-phenol] | 0.1 to 0.5
30 | Cc1ccc(O)c(-c2cc(N3CCNCC3)c(N)nn2)c1 [I-34, 2-(6-Amino-5-piperazin-1-yl-pyridazin-3-yl)-4-methyl-phenol] | > 1
31 | Nc1nnc(-c2ccn[nH]2)cc1C1CCNCC1 [I-35, 4-(4-Piperidyl)-6-(1H-pyrazol-5-yl)pyridazin-3-amine] | > 1
32 | COC(=O)C1=CC(=O)N2CCCN=C2S1 [I-37] | > 1
33 | COc1ccc(C(NC(=O)c2cc(-c3ccccc3O)n[nH]2)C2CC2)cc1 (centres unmarked) [I-38] | > 1

Target: T1, SMARCA2
Experiment: SMARCA2 HTRF assay (His-tagged SMARCA2-17, anti-6His Tb cryptate)
Conditions: read-out: SMARCA2 binding Human HTRF: Average IC50
Experimental: Sample handling: Prepared 1× Epigenetics Buffer according to manufacturer's instructions. Prepared 32 nM SMARCA2-17 (4X) with Epigenetics Buffer; Prepared 4× Tb working solution: dilute Mab Anti 6His Tb cryptate Gold in PPI-Terbium Detection buffer to 0.21 ng/l (100× dilution from stock). Prepared SMARCA2-mAb-Tb working solution by mixing equal volume of 32 nM SMARCA2 with Tb working solution. Started a half-hour timer. In a 96-well plate, prepared serial dilution of compound DMSO solutions. Placed 24 μl/well of Epigenetics Buffer to a second 96-well plate. Transferred 1 μl of the 100× compound DMSO solution to the second 96-well plate to make 4× compound working solution. Prepared 80 nM SMA-611-001H/SMA-788-001H (4×) with Epigenetics Buffer. Added 5 μl/well of SMA-611-001H into the 384-well plate. Added 5 μl/well of SMA-788-001H into the 384-well plate. Added 5 μl/well of 4× compound working solution into the 384-well plate, mix well. Added 10 µl/well of SMARCA2-mAb-Tb working solution into 384-well plate. Incubated the above mixtures at room temperature for 30 min. Data collected, processed and on EnVision. Calculated 520 nm/495 nm readouts ratio from raw data.
Target sequence in this assay (P51531 whole entry): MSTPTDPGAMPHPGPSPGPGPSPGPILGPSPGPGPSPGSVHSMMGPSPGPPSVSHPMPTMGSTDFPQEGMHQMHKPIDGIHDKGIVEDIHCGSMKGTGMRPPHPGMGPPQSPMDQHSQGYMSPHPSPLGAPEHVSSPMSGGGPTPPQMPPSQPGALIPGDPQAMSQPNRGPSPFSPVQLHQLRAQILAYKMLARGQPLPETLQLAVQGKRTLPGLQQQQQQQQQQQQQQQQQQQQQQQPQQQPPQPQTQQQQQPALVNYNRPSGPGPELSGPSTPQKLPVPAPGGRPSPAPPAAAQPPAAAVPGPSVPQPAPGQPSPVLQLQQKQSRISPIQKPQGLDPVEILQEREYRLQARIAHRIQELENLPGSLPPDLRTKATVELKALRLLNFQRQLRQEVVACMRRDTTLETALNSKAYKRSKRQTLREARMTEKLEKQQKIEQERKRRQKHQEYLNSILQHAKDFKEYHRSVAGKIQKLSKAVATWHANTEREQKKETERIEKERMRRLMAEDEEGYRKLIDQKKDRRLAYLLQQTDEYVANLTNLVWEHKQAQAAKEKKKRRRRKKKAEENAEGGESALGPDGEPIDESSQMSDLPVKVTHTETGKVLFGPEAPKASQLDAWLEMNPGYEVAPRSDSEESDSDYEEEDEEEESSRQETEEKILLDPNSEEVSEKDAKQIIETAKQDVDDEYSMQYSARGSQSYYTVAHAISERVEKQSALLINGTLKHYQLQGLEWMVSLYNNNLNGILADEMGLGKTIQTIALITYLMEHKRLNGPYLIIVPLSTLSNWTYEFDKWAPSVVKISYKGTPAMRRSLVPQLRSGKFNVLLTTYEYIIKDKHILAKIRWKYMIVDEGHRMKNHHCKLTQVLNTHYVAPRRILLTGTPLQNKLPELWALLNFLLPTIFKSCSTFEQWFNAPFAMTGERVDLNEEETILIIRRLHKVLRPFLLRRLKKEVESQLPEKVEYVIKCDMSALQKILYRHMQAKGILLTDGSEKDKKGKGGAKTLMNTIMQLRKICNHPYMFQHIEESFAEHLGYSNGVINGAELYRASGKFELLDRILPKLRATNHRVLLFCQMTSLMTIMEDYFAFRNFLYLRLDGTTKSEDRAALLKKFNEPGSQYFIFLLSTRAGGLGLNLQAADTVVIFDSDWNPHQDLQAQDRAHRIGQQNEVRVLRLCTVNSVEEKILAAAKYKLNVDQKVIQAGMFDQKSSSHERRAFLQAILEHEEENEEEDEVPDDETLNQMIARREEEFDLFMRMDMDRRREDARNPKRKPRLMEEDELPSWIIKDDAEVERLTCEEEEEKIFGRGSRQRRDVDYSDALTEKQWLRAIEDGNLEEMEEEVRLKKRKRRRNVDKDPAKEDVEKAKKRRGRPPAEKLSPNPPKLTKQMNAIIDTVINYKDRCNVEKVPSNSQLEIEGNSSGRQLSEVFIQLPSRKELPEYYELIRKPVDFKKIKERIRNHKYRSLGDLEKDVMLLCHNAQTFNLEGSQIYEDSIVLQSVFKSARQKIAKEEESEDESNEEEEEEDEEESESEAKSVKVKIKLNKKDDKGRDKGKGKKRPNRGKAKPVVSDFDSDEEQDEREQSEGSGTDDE

Row | SMILES | IC50 [µM]
34 | Oc1ccccc1-c1cc2cc[nH]c2nn1 [I-19, 2-(7H-Pyrrolo[2,3-c]pyridazin-3-yl)phenol] | 1 to 100
35 | Nc1ncc2ccccc2c1C#CC1CCNCC1 [I-25, 4-(Piperidin-4-ylethynyl)isoquinolin-3-amine] | 101 to 500
